The record followed here is ChEMBL document CHEMBL4414643, “Pharmacokinetics of Phytocannabinoid Acids and Anticonvulsant Effect of Cannabidiolic Acid in a Mouse Model of Dravet Syndrome” (J Nat Prod, 2019).

The structures appear in SMILES notation.

This assay relates to Mus musculus. In words: Anticonvulsant activity against hyperthermia-induced seizure in ip administered Scn1aRX/+ mouse model of Dravet syndrome assessed as effective dose causing increase in generalized tonic-clonic seizure temperature threshold measured by RET-3 rectal probe. In kind it is functional.

Take `C=C(C)[C@@H]1CCC(C)=C[C@H]1c1c(O)cc(CCCCC)cc1O` [CANNABIDIOL]: the ED stood at 100 mg/kg.
